Consider 37 compounds from US9283222B2 (priority 2006, dated 2016).

Broadly, the Ki is the dissociation constant of the complex between target and ligand, obtained from inhibition or displacement.

For the assay, the target named is Recombinant Human Poly(ADP-Ribose) Polymerase (PARP), PARP-1 (Homo sapiens (Human), UniProt P09874). The conditions noted are these: read-out: PARP-1 (Ki); Table 1; text calls the values EC50s.
Sequence of Recombinant Human Poly(ADP-Ribose) Polymerase (PARP), PARP-1 (P09874 whole entry): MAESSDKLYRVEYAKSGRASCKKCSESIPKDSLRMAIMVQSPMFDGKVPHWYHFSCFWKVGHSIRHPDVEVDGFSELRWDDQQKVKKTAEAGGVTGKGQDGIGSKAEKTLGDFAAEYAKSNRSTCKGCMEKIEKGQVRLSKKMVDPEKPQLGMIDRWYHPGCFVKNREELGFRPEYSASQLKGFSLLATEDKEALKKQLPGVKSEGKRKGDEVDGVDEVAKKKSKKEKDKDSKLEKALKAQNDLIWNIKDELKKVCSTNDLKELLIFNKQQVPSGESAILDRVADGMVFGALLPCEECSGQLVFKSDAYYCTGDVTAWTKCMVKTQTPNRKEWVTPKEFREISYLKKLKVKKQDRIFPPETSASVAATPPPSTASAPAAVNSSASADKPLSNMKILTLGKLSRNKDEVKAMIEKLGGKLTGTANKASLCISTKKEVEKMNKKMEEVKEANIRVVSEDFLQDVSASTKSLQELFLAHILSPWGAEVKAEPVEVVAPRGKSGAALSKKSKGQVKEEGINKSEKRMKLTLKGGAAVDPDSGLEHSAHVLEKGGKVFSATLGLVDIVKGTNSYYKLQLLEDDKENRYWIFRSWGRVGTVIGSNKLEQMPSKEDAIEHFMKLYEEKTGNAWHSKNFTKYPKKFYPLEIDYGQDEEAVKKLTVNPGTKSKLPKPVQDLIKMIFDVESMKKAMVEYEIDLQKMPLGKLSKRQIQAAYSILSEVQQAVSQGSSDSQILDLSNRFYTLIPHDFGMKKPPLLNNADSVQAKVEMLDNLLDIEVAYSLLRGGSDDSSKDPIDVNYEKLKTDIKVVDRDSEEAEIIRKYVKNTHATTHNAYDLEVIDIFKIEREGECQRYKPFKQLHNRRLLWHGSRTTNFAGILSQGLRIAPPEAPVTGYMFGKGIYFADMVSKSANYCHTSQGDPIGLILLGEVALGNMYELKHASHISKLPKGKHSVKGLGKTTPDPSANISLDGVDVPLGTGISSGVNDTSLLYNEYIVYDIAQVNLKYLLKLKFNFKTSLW

In the case of `O=C(NCCCN1CCCCC1)c1cccc(Cc2n[nH]c(=O)c3c2CCCC3)c1` [Example 316, 3-((4-oxo-3,4,5,6,7,8-hexahydrophthalazin-1-yl)methyl)-N-(3-piperidin-1-ylpropyl)benzamide], the Ki came to 0.034 µM.

As to `O=C(NCCCN1CCOCC1)c1cccc(Cc2n[nH]c(=O)c3c2CCCC3)c1` [Example 317, N-(3-morpholin-4-ylpropyl)-3-((4-oxo-3,4,5,6,7,8-hexahydrophthalazin-1-yl)methyl)benzamide], the Ki stood at 0.025 µM.

Consider `O=C(NCCc1c[nH]c2ccccc12)c1cccc(Cc2n[nH]c(=O)c3c2CCCC3)c1` [Example 318, N-(2-(1H-indol-3-yl)ethyl)-3-((4-oxo-3,4,5,6,7,8-hexahydrophthalazin-1-yl)methyl)benzamide], for which the inhibitory constant (Ki) stood at 0.028 µM.

With `O=C(Nc1nccs1)c1cccc(Cc2n[nH]c(=O)c3c2CCCC3)c1` [Example 319, 3-((4-oxo-3,4,5,6,7,8-hexahydrophthalazin-1-yl)methyl)-N-1,3-thiazol-2-ylbenzamide], the inhibition constant (Ki) was determined as 0.094 µM.

`O=C(CNC(=O)OCc1ccccc1)Nc1cccc(CCc2n[nH]c(=O)c3c2CCCC3)c1` [Example 320, benzyl 2-oxo-2-(3-(2-(4-oxo-3,4,5,6,7,8-hexahydrophthalazin-1-yl)ethyl)phenylamino)ethylcarbamate]: the Ki was found to be 0.165 µM.

As to `O=C(CCC(=O)c1ccc(Oc2ccccc2)cc1)Nc1cccc(CCc2n[nH]c(=O)c3c2CCCC3)c1` [Example 321, 4-oxo-N-(3-(2-(4-oxo-3,4,5,6,7,8-hexahydrophthalazin-1-yl)ethyl)phenyl)-4-(4-phenoxyphenyl)butanamide], the Ki was determined as 0.223 µM.

Take `O=C(Nc1cccc(CCc2n[nH]c(=O)c3c2CCCC3)c1)C1CCCN(C(=O)OCc2ccccc2)C1` (stereo not shown) [Example 322, benzyl 3-(((3-(2-(4-oxo-3,4,5,6,7,8-hexahydrophthalazin-1-yl)ethyl)phenyl)amino)carbonyl)piperidine-1-carboxylate]: the Ki worked out at 0.556 µM.

For the compound `Cc1ccc(OCC(=O)Nc2cccc(CCc3n[nH]c(=O)c4c3CCCC4)c2)cc1` [Example 323, 2-(4-methylphenoxy)-N-(3-(2-(4-oxo-3,4,5,6,7,8-hexahydrophthalazin-1-yl)ethyl)phenyl)acetamide], the Ki is 0.237 µM.

For the compound `CCc1ccccc1NC(=O)c1cccc(Cc2n[nH]c(=O)c3c2CCCC3)c1` [Example 329, N-(2-ethylphenyl)-3-((4-oxo-3,4,5,6,7,8-hexahydrophthalazin-1-yl)methyl)benzamide], the Ki came out at 0.789 µM.

Consider `CCc1cccc(NC(=O)c2cccc(Cc3n[nH]c(=O)c4c3CCCC4)c2)c1` [Example 330, N-(3-ethylphenyl)-3-((4-oxo-3,4,5,6,7,8-hexahydrophthalazin-1-yl)methyl)benzamide], for which the Ki came to 0.099 µM.

Take `CCc1ccc(NC(=O)c2cccc(Cc3n[nH]c(=O)c4c3CCCC4)c2)cc1` [Example 331]: the Ki stood at 0.14 µM.

In the case of `CCCc1ccccc1NC(=O)c1cccc(Cc2n[nH]c(=O)c3c2CCCC3)c1` [Example 332, 3-((4-oxo-3,4,5,6,7,8-hexahydrophthalazin-1-yl)methyl)-N-(2-propylphenyl)benzamide], the Ki came out at 0.635 µM.

As for `CC(C)c1ccccc1NC(=O)c1cccc(Cc2n[nH]c(=O)c3c2CCCC3)c1` [Example 333, N-(2-isopropylphenyl)-3-((4-oxo-3,4,5,6,7,8-hexahydrophthalazin-1-yl)methyl)benzamide], the Ki was determined as 0.892 µM.

For `CC(C)c1ccc(NC(=O)c2cccc(Cc3n[nH]c(=O)c4c3CCCC4)c2)cc1` [Example 334, N-(4-isopropylphenyl)-3-((4-oxo-3,4,5,6,7,8-hexahydrophthalazin-1-yl)methyl)benzamide], the Ki worked out at 0.191 µM.

With `CC(C)(C)c1cccc(NC(=O)c2cccc(Cc3n[nH]c(=O)c4c3CCCC4)c2)c1` [Example 335, N-(3-tert-butylphenyl)-3-((4-oxo-3,4,5,6,7,8-hexahydrophthalazin-1-yl)methyl)benzamide], the Ki was 0.122 µM.

`CC(C)(C)c1ccc(NC(=O)c2cccc(Cc3n[nH]c(=O)c4c3CCCC4)c2)cc1` [Example 336, N-(4-tert-butylphenyl)-3-((4-oxo-3,4,5,6,7,8-hexahydrophthalazin-1-yl)methyl)benzamide]: the inhibition constant (Ki) was found to be 0.363 µM.

Regarding `O=C(Nc1ccc(-c2ccccc2)cc1)c1cccc(Cc2n[nH]c(=O)c3c2CCCC3)c1` [Example 337, N-1,1′-biphenyl-4-yl-3-((4-oxo-3,4,5,6,7,8-hexahydrophthalazin-1-yl)methyl)benzamide], the Ki was determined as 0.124 µM.

On to `Cc1ccc(NC(=O)c2cccc(Cc3n[nH]c(=O)c4c3CCCC4)c2)c(F)c1` [Example 338, N-(2-fluoro-4-methylphenyl)-3-((4-oxo-3,4,5,6,7,8-hexahydrophthalazin-1-yl)methyl)benzamide], for which the Ki came out at 0.136 µM.

For the compound `Cc1ccc(NC(=O)c2cccc(Cc3n[nH]c(=O)c4c3CCCC4)c2)cc1F` [Example 339, N-(3-fluoro-4-methylphenyl)-3-((4-oxo-3,4,5,6,7,8-hexahydrophthalazin-1-yl)methyl)benzamide], the Ki came to 0.12 µM.

With `Cc1cc(F)ccc1NC(=O)c1cccc(Cc2n[nH]c(=O)c3c2CCCC3)c1` [Example 340, N-(4-fluoro-2-methylphenyl)-3-((4-oxo-3,4,5,6,7,8-hexahydrophthalazin-1-yl)methyl)benzamide], the Ki worked out at 0.279 µM.

Turning to `Cc1cc(NC(=O)c2cccc(Cc3n[nH]c(=O)c4c3CCCC4)c2)ccc1F` [Example 341, N-(4-fluoro-3-methylphenyl)-3-((4-oxo-3,4,5,6,7,8-hexahydrophthalazin-1-yl)methyl)benzamide], the Ki was found to be 0.154 µM.

`Cc1ccc(NC(=O)c2cccc(Cc3n[nH]c(=O)c4c3CCCC4)c2)cc1Cl` [Example 342, N-(3-chloro-4-methylphenyl)-3-((4-oxo-3,4,5,6,7,8-hexahydrophthalazin-1-yl)methyl)benzamide]: the Ki turned out to be 0.134 µM.

Consider `Cc1cc(NC(=O)c2cccc(Cc3n[nH]c(=O)c4c3CCCC4)c2)ccc1Cl` [Example 343, N-(4-chloro-3-methylphenyl)-3-((4-oxo-3,4,5,6,7,8-hexahydrophthalazin-1-yl)methyl)benzamide], for which the Ki is 0.087 µM.

As for `Cc1ccc(NC(=O)c2cccc(Cc3n[nH]c(=O)c4c3CCCC4)c2)cc1Br` [Example 344, N-(3-bromo-4-methylphenyl)-3-((4-oxo-3,4,5,6,7,8-hexahydrophthalazin-1-yl)methyl)benzamide], the Ki turned out to be 0.194 µM.

On to `Cc1cc(NC(=O)c2cccc(Cc3n[nH]c(=O)c4c3CCCC4)c2)ccc1Br` [Example 345, N-(4-bromo-3-methylphenyl)-3-((4-oxo-3,4,5,6,7,8-hexahydrophthalazin-1-yl)methyl)benzamide], for which the Ki turned out to be 0.149 µM.

For `COc1ccc(NC(=O)c2cccc(Cc3n[nH]c(=O)c4c3CCCC4)c2)cc1F` [Example 346, N-(3-fluoro-4-methoxyphenyl)-3-((4-oxo-3,4,5,6,7,8-hexahydrophthalazin-1-yl)methyl)benzamide], the Ki turned out to be 0.033 µM.

With `COc1cc(NC(=O)c2cccc(Cc3n[nH]c(=O)c4c3CCCC4)c2)cc(C(F)(F)F)c1` [Example 347, N-(3-methoxy-5-(trifluoromethyl)phenyl)-3-((4-oxo-3,4,5,6,7,8-hexahydrophthalazin-1-yl)methyl)benzamide], the Ki was determined as 0.337 µM.

As to `Cc1cccc(O)c1NC(=O)c1cccc(Cc2n[nH]c(=O)c3c2CCCC3)c1` [Example 348, N-(2-hydroxy-6-methylphenyl)-3-((4-oxo-3,4,5,6,7,8-hexahydrophthalazin-1-yl)methyl)benzamide], the Ki was found to be 0.259 µM.

With `Cc1c(O)cccc1NC(=O)c1cccc(Cc2n[nH]c(=O)c3c2CCCC3)c1` [Example 349, N-(3-hydroxy-2-methylphenyl)-3-((4-oxo-3,4,5,6,7,8-hexahydrophthalazin-1-yl)methyl)benzamide], the Ki turned out to be 0.055 µM.

`Cc1ccc(NC(=O)c2cccc(Cc3n[nH]c(=O)c4c3CCCC4)c2)cc1O` [Example 350, N-(3-hydroxy-4-methylphenyl)-3-((4-oxo-3,4,5,6,7,8-hexahydrophthalazin-1-yl)methyl)benzamide]: the Ki was found to be 0.143 µM.

On to `COc1ccc(C)cc1NC(=O)c1cccc(Cc2n[nH]c(=O)c3c2CCCC3)c1` [Example 351, N-(2-methoxy-5-methylphenyl)-3-((4-oxo-3,4,5,6,7,8-hexahydrophthalazin-1-yl)methyl)benzamide], for which the Ki was 0.277 µM.

With `COc1cc(NC(=O)c2cccc(Cc3n[nH]c(=O)c4c3CCCC4)c2)ccc1C` [Example 352, N-(3-methoxy-4-methylphenyl)-3-((4-oxo-3,4,5,6,7,8-hexahydrophthalazin-1-yl)methyl)benzamide], the Ki was determined as 0.154 µM.

As for `COc1ccc(NC(=O)c2cccc(Cc3n[nH]c(=O)c4c3CCCC4)c2)cc1O` [Example 353, N-(3-hydroxy-4-methoxyphenyl)-3-((4-oxo-3,4,5,6,7,8-hexahydrophthalazin-1-yl)methyl)benzamide], the Ki stood at 0.059 µM.

As to `CCOc1ccccc1NC(=O)c1cccc(Cc2n[nH]c(=O)c3c2CCCC3)c1` [Example 354, N-(2-ethoxyphenyl)-3-((4-oxo-3,4,5,6,7,8-hexahydrophthalazin-1-yl)methyl)benzamide], the Ki was determined as 0.363 µM.

With `CCCOc1ccc(NC(=O)c2cccc(Cc3n[nH]c(=O)c4c3CCCC4)c2)cc1` [Example 355, 3-((4-oxo-3,4,5,6,7,8-hexahydrophthalazin-1-yl)methyl)-N-(4-propoxyphenyl)benzamide], the Ki worked out at 0.092 µM.

In the case of `COc1ccc(C(C)(C)C)cc1NC(=O)c1cccc(Cc2n[nH]c(=O)c3c2CCCC3)c1` [Example 356, N-(5-tert-butyl-2-methoxyphenyl)-3-((4-oxo-3,4,5,6,7,8-hexahydrophthalazin-1-yl)methyl)benzamide], the Ki is 0.18 µM.

For `COc1ccc(NC(C)=O)cc1NC(=O)c1cccc(Cc2n[nH]c(=O)c3c2CCCC3)c1` [Example 357, N-(5-(acetylamino)-2-methoxyphenyl)-3-((4-oxo-3,4,5,6,7,8-hexahydrophthalazin-1-yl)methyl)benzamide], the Ki was 0.402 µM.
